Measured values from ChEMBL document CHEMBL1201862, “PubChem BioAssay data set” (2004).
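Cells were grown in 96-well plates and exposed to each compound for 48 hours at five concentrations; endpoints were interpolated linearly between bracketing concentrations, or set to the highest concentration if not reached. At the GI50, growth is halved.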 Active and inactive are the calls of the source. Cut-off read from the data, not from the text of the source: active = GI50 up to about 1.1 µM and inactive = higher.

Key:
Experiment in all cases: NCI tumour cell line growth inhibition, 48 h
[1] = test system: OVCAR-3
[2] = test system: NCI-H23
[3] = test system: NCI-H522
[4] = test system: UO-31
[5] = test system: HT-29
[6] = test system: SNB-19
[7] = test system: SN12C
[8] = test system: RXF 393
[9] = test system: UACC-62
[10] = test system: A549
[11] = test system: SK-MEL-2
[12] = test system: HOP-92
[13] = test system: ACHN
[14] = test system: MCF7
[15] = test system: LOX IMVI
[16] = test system: OVCAR-8
[17] = test system: OVCAR-4
[18] = test system: NCI/ADR-RES
[19] = test system: MDA-MB-231
[20] = test system: KM12
[21] = test system: A498
[22] = test system: T47D
[23] = test system: K562
[24] = test system: SK-MEL-28
[25] = test system: UACC-257
[26] = test system: SR
[27] = test system: RPMI-8226
[28] = test system: CCRF-CEM
[29] = test system: HCC 2998
[30] = test system: BT-549
[31] = test system: HL-60
[32] = test system: U-251
[33] = test system: Hs-578T
[34] = test system: HOP-62
[35] = test system: 786-0
[36] = test system: SK-MEL-5
[37] = test system: DU-145
[38] = test system: SNB-75
[39] = test system: SK-OV-3
[40] = test system: M14
[41] = test system: SF-539
[42] = test system: OVCAR-5
[43] = test system: MDA-MB-435
[44] = test system: MOLT-4
[45] = test system: IGROV-1
[46] = test system: PC-3
[47] = test system: TK-10
[48] = test system: HCT-116
[49] = test system: COLO 205
[50] = test system: SW-620
[51] = test system: HCT-15
[52] = test system: EKVX
[53] = test system: CAKI-1
[54] = test system: Malme-3M
[55] = test system: NCI-H460
[56] = test system: SF-268
[57] = test system: SF-295
[58] = test system: MDA-N
[59] = test system: NCI-H226

Measured: GI50

Cc1cc(C(C)(C)C)c(OCCCN2CCOCC2)c(C(C)(C)C)c1
18 µM: [51]
inactive: [1] 19.2 µM | [2] 17.5 µM | [3] 17.9 µM | [4] 18.3 µM | [5] 16.3 µM | [6] 17.3 µM | [7] 17.8 µM | [8] 16 µM | [9] 16 µM | [10] 17.5 µM | [11] 16.5 µM | [12] 20.4 µM | [13] 17.4 µM | [14] 18.6 µM | [15] 20.6 µM | [16] 20.2 µM | [17] 15.9 µM | [18] 17 µM | [19] 17.4 µM | [20] 17.5 µM | [21] 18.9 µM | [22] 15.1 µM | [23] 16.6 µM | [24] 16.4 µM | [25] 17.3 µM | [26] 17.7 µM | [27] 14.1 µM | [28] 16.6 µM | [29] 16.7 µM | [30] 17.5 µM | [31] 14.1 µM | [32] 18 µM | [33] 20.7 µM | [34] 19.5 µM | [35] 17.3 µM | [36] 15.9 µM | [37] 17.1 µM | [38] 16.7 µM | [39] 20 µM | [40] 16.8 µM | [41] 18.7 µM | [42] 17.9 µM | [43] 19.4 µM | [44] 17.1 µM | [45] 19.5 µM | [46] 15.8 µM | [47] 19.3 µM | [48] 16.7 µM | [49] 15.7 µM | [50] 16.9 µM | [52] 17.9 µM | [53] 19.1 µM | [54] 20.1 µM | [55] 30.9 µM | [56] 18.7 µM | [57] 17.5 µM | [58] 18.1 µM

OC(CN1CCCCC1)c1ccc(/C=C/c2ccc(Cl)cc2)cc1 (configuration not stated)
25.2 µM: [51]
inactive: [1] 89.1 µM | [2] > 100 µM | [3] 21.3 µM | [4] 50.4 µM | [5] 12 µM | [6] > 100 µM | [7] > 100 µM | [8] > 100 µM | [9] 24.3 µM | [10] > 100 µM | [11] 27.2 µM | [12] 50.6 µM | [13] > 100 µM | [14] > 100 µM | [16] > 100 µM | [17] 83.6 µM | [18] > 100 µM | [19] > 100 µM | [20] 17.2 µM | [21] 40 µM | [22] > 100 µM | [23] 37.3 µM | [24] 22.3 µM | [25] 21.6 µM | [26] > 100 µM | [27] 27.6 µM | [28] 70.5 µM | [59] > 100 µM | [29] 46 µM | [30] > 100 µM | [31] 6.14 µM | [32] > 100 µM | [33] 50.1 µM | [34] 94.8 µM | [35] 56.5 µM | [36] 22.3 µM | [37] > 100 µM | [39] > 100 µM | [40] 19.9 µM | [41] 43.6 µM | [42] 31.8 µM | [43] 54.3 µM | [44] > 100 µM | [45] 26.2 µM | [46] 90.6 µM | [47] > 100 µM | [48] 38.9 µM | [49] 16.7 µM | [50] 46.9 µM | [52] > 100 µM | [54] 60.3 µM | [55] 54.6 µM | [56] > 100 µM | [57] 40.7 µM | [58] 56.9 µM

CC1OC(OC2C(O)COC(OC3C(C)OC(OC4C(OC(=O)[C@]56CCC(C)(C)C[C@@H]5C5=CCC7[C@@]8(C)C[C@H](O)[C@H](OC9OC(CO)C(O)C(O)C9O)[C@@](C)(CO)[C@@H]8CC[C@@]7(C)[C@]5(C)CC6)OCC(O)C4O)C(O)C3OC3OCC(O)C(O)C3O)C2O)C(O)C(O)C1O (some centres not stated)
inactive: [1] 17.8 µM | [2] 20.8 µM | [3] 44.9 µM | [4] 5.19 µM | [6] 19.1 µM | [7] 17.5 µM | [8] 15.9 µM | [9] 22.3 µM | [10] 14 µM | [11] 21.4 µM | [12] 24.8 µM | [13] 17.8 µM | [14] 19.8 µM | [15] 18.9 µM | [16] 19.5 µM | [17] 20.1 µM | [18] 26.2 µM | [19] 14.7 µM | [20] 25.7 µM | [21] 14.3 µM | [22] 20.2 µM | [23] 42.9 µM | [24] 11.2 µM | [25] 14.9 µM | [26] 17.9 µM | [27] 39 µM | [28] 15.6 µM | [59] 23.1 µM | [29] 16.6 µM | [30] 31.9 µM | [32] 20 µM | [33] 40.9 µM | [34] 17.8 µM | [35] 15.5 µM | [36] 19.5 µM | [37] 18.4 µM | [38] 22.6 µM | [39] 18.6 µM | [40] 11 µM | [41] 18.1 µM | [42] 14.4 µM | [43] 21.8 µM | [44] 20.1 µM | [46] 14 µM | [47] 17.3 µM | [48] 19.9 µM | [49] 4.46 µM | [50] 14.9 µM | [52] 10.7 µM | [53] 10.7 µM | [54] 34.4 µM | [55] 20.1 µM | [56] 29.2 µM | [57] 20.7 µM | [58] 18.8 µM
28.8 µM: [51]

CCOC(=O)[C@@H]1CCN2CN(c3ccc(OC)cc3)N=C(c3ccccc3)[C@@]12c1ccccc1
23.9 µM: [51]
inactive: [2] 24.1 µM | [3] 17.5 µM | [4] 17.8 µM | [5] 17.1 µM | [6] 37 µM | [7] 16 µM | [8] 14.7 µM | [9] 15.5 µM | [10] 29.9 µM | [11] 18.1 µM | [12] 12.6 µM | [13] 24.8 µM | [14] 20.7 µM | [15] 14.1 µM | [16] 22.7 µM | [17] 44 µM | [18] 28.3 µM | [19] 31.6 µM | [20] 28.3 µM | [21] 21.6 µM | [22] 19.1 µM | [23] 66.8 µM | [24] 21.5 µM | [25] 19.4 µM | [26] 23.7 µM | [27] 14.1 µM | [28] 23.7 µM | [59] 14.7 µM | [29] 26.2 µM | [30] 21.4 µM | [31] 6.7 µM | [32] 28.9 µM | [33] 23.4 µM | [34] 27.7 µM | [35] 18.6 µM | [36] 13.2 µM | [37] 22.6 µM | [38] 11.5 µM | [39] 44 µM | [40] 20 µM | [42] 32.2 µM | [43] 26.5 µM | [44] 26.1 µM | [45] 21.3 µM | [46] 25.5 µM | [47] 29.3 µM | [48] 16.7 µM | [49] 21.4 µM | [50] 32.1 µM | [52] 29.4 µM | [53] 29.6 µM | [54] 16.6 µM | [55] 27.8 µM | [56] 28.9 µM | [57] 25.8 µM | [58] 23.2 µM
